The values below come from patent US20240182445A1 (ONO PHARMACEUTICAL CO., LTD., priority 2019, published 2024).

For one test, the target named is T1, human TREK-1 (Homo sapiens, UniProt O95069).
T1 construct: expressed in transfected cells
T1 sequence (O95069 1-426): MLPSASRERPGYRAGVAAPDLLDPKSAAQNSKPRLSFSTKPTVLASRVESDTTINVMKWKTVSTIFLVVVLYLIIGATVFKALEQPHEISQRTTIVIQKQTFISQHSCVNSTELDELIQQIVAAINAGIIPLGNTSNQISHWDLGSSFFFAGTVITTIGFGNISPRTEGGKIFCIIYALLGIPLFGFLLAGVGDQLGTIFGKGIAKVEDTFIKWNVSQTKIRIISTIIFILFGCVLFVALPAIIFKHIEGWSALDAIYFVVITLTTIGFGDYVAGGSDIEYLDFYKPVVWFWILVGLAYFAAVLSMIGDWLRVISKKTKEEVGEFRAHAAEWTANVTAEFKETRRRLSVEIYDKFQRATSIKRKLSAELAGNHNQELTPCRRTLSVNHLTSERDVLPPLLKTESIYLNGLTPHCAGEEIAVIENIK
The test can be described thus: TREK-1 Thallium (Tl+) flux assay, Method 1. In kind it is cell-based. Conditions: TREK-1 Thallium (Tl+) flux assay, Method 1. The method, boiled down:
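CHO-K1 cells stably expressing human TREK-1, loaded with Thallos dye, received compound or 0.3% DMSO vehicle for 10 min before thallium stimulus buffer. ΔRatio is fluorescence at 25 s after thallium addition over mean pre-addition fluorescence; % inhibition calculated from it.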
For `CC(=O)N1CCC(n2ncc(Cl)c2C(=O)Nc2ncc(-c3ccc(C(F)(F)F)cc3)cc2C)CC1` [Compound 427, 1-(1-acetylpiperidin-4-yl)-4-chloro-N-(3-methyl-5-(4-(trifluoromethyl)phenyl)pyridin-2-yl)-1H-pyrazole-5-carboxamide], the IC50 was found to be 5210 nM.

The test is the same for the next values; noted with them: TREK-1 Thallium (Tl+) flux assay; no *^12 (Method 2) mark on these rows.
For `COc1ncc(-c2cnc(NC(=O)c3c(Cl)cnn3C3CCN(C(=O)OC(C)(C)C)CC3)c(C)c2)cc1F` [Compound 383, tert-butyl 4-(4-chloro-5-((5′-fluoro-6′-methoxy-5-methyl-[3,3′-bipyridin]-6-yl)carbamoyl)-1H-pyrazol-1-yl)piperidine-1-carboxylate], the IC50 turned out to be 680 nM. `CC(=O)N1CC[C@@H](n2ncc(Cl)c2C(=O)Nc2ncc(C#Cc3ccccc3)cc2F)C1` [Compound 203, (R)-1-(1-acetylpyrrolidin-3-yl)-4-chloro-N-(3-fluoro-5-(phenylethynyl)pyridin-2-yl)-1H-pyrazole-5-carboxamide]: inhibition was half-maximal at 310 nM (IC50). On the same count and under the same terms, the figure for `CC1CN(C(=O)OC(C)(C)C)CCC1Cn1ncc(Cl)c1C(=O)Nc1ncc(C#Cc2ccccc2)cc1F` (centres unmarked) [Compound 318, tert-butyl 4-((4-chloro-5-((3-fluoro-5-(phenylethynyl)pyridin-2-yl)carbamoyl)-1H-pyrazol-1-yl)methyl)-3-methylpiperidine-1-carboxylate] is 610 nM; for `Cc1cc(C#Cc2ccc(F)cc2)cnc1NC(=O)c1c(Cl)cnn1C1CCN(C(=O)CC(C)C)C1` (centres unmarked) [Compound 258, 4-chloro-N-(5-((4-fluorophenyl)ethynyl)-3-methylpyridin-2-yl)-1-(1-(3-methylbutanoyl)pyrrolidin-3-yl)-1H-pyrazole-5-carboxamide] it is 420 nM; for `Cc1cc(C#Cc2ccccc2)cnc1NC(=O)c1c(Cl)cnn1[C@H]1C[C@@H](NC(=O)C(C)C)C1` [Compound 207, 4-chloro-1-(cis-3-isobutyramidocyclobutyl)-N-(3-methyl-5-(phenylethynyl)pyridin-2-yl)-1H-pyrazole-5-carboxamide] it is 310 nM. Take `O=C(Nc1ncc(C#Cc2ccccc2)cc1F)c1c(Cl)cnn1-c1ccc2c(c1)OCO2` [Compound 227, 1-(benzo[d][1,3]dioxol-5-yl)-4-chloro-N-(3-fluoro-5-(phenylethynyl)pyridin-2-yl)-1H-pyrazole-5-carboxamide]: the IC50 was 350 nM. `Cc1cc(C#Cc2ccccc2)cnc1NC(=O)c1c(Cl)cnn1CC1CN(C(=O)C2CC2)C1` [Compound 274, 4-chloro-1-((1-(cyclopropanecarbonyl)azetidin-3-yl)methyl)-N-(3-methyl-5-(phenylethynyl)pyridin-2-yl)-1H-pyrazole-5-carboxamide]: the IC50 was 470 nM. This IC50 and that of the compound before are within 1.5-fold of each other.

`O=C(Nc1ncc(C#Cc2ccccc2)cc1F)c1c(Cl)cnn1[C@H]1CCOC1` [Compound 275, (S)-4-chloro-N-(3-fluoro-5-(phenylethynyl)pyridin-2-yl)-1-(tetrahydrofuran-3-yl)-1H-pyrazole-5-carboxamide] came in with an IC50 of 480 nM. On the same count and under the same terms, the result for `Cc1cc(C#Cc2ccc(F)cc2)cnc1NC(=O)c1c(Cl)cnn1CC1(C#N)CCN(C(=O)OC(C)(C)C)CC1` [Compound 269, tert-butyl 4-((4-chloro-5-((5-((4-fluorophenyl)ethynyl)-3-methylpyridin-2-yl)carbamoyl)-1H-pyrazol-1-yl)methyl)-4-cyanopiperidine-1-carboxylate] reads 450 nM; that for `Cc1cc(C#Cc2ccc(F)cc2)cnc1NC(=O)c1c(Cl)cnn1CC1CCCN(C(=O)C2COCCO2)C1` (centres unmarked) [Compound 223, 1-((1-(1,4-dioxane-2-carbonyl)piperidin-3-yl)methyl)-4-chloro-N-(5-((4-fluorophenyl)ethynyl)-3-methylpyridin-2-yl)-1H-pyrazole-5-carboxamide], 340 nM; that for `Cc1cc(C#Cc2ccccc2)cc(F)c1NC(=O)c1c(Cl)cnn1C[C@H]1CCOC1` [Compound 219, (R)-4-chloro-N-(2-fluoro-6-methyl-4-(phenylethynyl)phenyl)-1-((tetrahydrofuran-3-yl)methyl)-1H-pyrazole-5-carboxamide], 340 nM. For the compound `O=C(Nc1c(F)cc(C#Cc2ccccc2)cc1F)c1c(Cl)cnn1C1CCOCC1` [Compound 201, 4-chloro-N-(2,6-difluoro-4-(phenylethynyl)phenyl)-1-(tetrahydro-2H-pyran-4-yl)-1H-pyrazole-5-carboxamide], the IC50 is 310 nM. Same read-out and setting: the figure for `CC(=O)N1CCC(Cn2ncc(Cl)c2C(=O)Nc2ncc(C#Cc3ccc(F)cc3)cc2C)C(F)(F)C1` (centres unmarked) [Compound 313, 1-((1-acetyl-3,3-difluoropiperidin-4-yl)methyl)-4-chloro-N-(5-((4-fluorophenyl)ethynyl)-3-methylpyridin-2-yl)-1H-pyrazole-5-carboxamide] is 590 nM; for `CC(C)(C)OC(=O)N[C@H]1CC[C@H](n2ncc(Cl)c2C(=O)Nc2ncc(C#Cc3ccccc3)cc2F)CC1` [Compound 360, tert-butyl (trans-4-(4-chloro-5-((3-fluoro-5-(phenylethynyl)pyridin-2-yl)carbamoyl)-1H-pyrazol-1-yl)cyclohexyl)carbamate] it is 900 nM.

Still in this test, the particulars now being: TREK-1 Thallium (Tl+) flux assay; values without footnote *12 are Method 1.
On to `Cc1cc(C#Cc2ccc(F)cc2)cnc1NC(=O)c1c(Cl)cnn1C1CCN(C(=O)C(C)(C)C)CC1` [Compound 181, 4-chloro-N-(5-((4-fluorophenyl)ethynyl)-3-methylpyridin-2-yl)-1-(1-pivaloylpiperidin-4-yl)-1H-pyrazole-5-carboxamide], for which the IC50 was found to be 280 nM. Still for that read-out and setting: the result for `CC(=O)N1CCC(n2ncc(Cl)c2C(=O)Nc2ncc(C#Cc3ccccc3)cc2C)CC1C` (centres unmarked) [Compound 61, 1-(1-acetyl-2-methylpiperidin-4-yl)-4-chloro-N-(3-methyl-5-(phenylethynyl)pyridin-2-yl)-1H-pyrazole-5-carboxamide] reads 150 nM; that for `Cc1cc(C#Cc2ccc(F)cc2)cnc1NC(=O)c1c(Cl)cnn1CCN1CCN(C(=O)C2CC2)CC1` [Compound 96, 4-chloro-1-(2-(4-(cyclopropanecarbonyl)piperazin-1-yl)ethyl)-N-(5-((4-fluorophenyl)ethynyl)-3-methylpyridin-2-yl)-1H-pyrazole-5-carboxamide], 180 nM; that for `Cc1cc(C#Cc2cccc(F)c2)cnc1NC(=O)c1c(Cl)cnn1C1CCN(C(=O)C2CC2)CC1` [Compound 143, 4-chloro-1-(1-(cyclopropanecarbonyl)piperidin-4-yl)-N-(5-((3-fluorophenyl)ethynyl)-3-methylpyridin-2-yl)-1H-pyrazole-5-carboxamide], 230 nM. Same read-out and setting: the figure for `Cc1cc(C#Cc2ccccc2)cnc1NC(=O)c1c(Cl)cnn1CC1CCN(C(=O)C2CC2)CC1` [Compound 52, 4-chloro-1-((1-(cyclopropanecarbonyl)piperidin-4-yl)methyl)-N-(3-methyl-5-(phenylethynyl)pyridin-2-yl)-1H-pyrazole-5-carboxamide] is 140 nM; for `CC(C)(C)OC(=O)N1CCC(C#N)(Cn2ncc(Cl)c2C(=O)Nc2ncc(C#Cc3ccccc3)cc2F)CC1` [Compound 83, tert-butyl 4-((4-chloro-5-((3-fluoro-5-(phenylethynyl)pyridin-2-yl)carbamoyl)-1H-pyrazol-1-yl)methyl)-4-cyanopiperidine-1-carboxylate] it is 160 nM; for `O=C(Nc1ncc(C#Cc2ccccc2)cc1F)c1c(Cl)cnn1C1CCN(C(=O)C(F)(F)F)CC1` [Compound 54, 4-chloro-N-(3-fluoro-5-(phenylethynyl)pyridin-2-yl)-1-(1-(2,2,2-trifluoroacetyl)piperidin-4-yl)-1H-pyrazole-5-carboxamide] it is 140 nM.

The compound `CC(C)C(=O)N[C@H]1CC[C@@H](n2ncc(Cl)c2C(=O)Nc2ncc(C#Cc3ccc(F)cc3)cc2F)CC1` [Compound 45, 4-chloro-N-(3-fluoro-5-((4-fluorophenyl)ethynyl)pyridin-2-yl)-1-(cis-4-isobutyramidocyclohexyl)-1H-pyrazole-5-carboxamide] had an IC50 of 130 nM. On the same count and under the same terms, the result for `CC(=O)N1CC[C@H](n2ncc(Cl)c2C(=O)Nc2ncc(C#Cc3ccccc3)cc2F)[C@@H](F)C1` [Compound 154, 1-((3S,4S)-1-acetyl-3-fluoropiperidin-4-yl)-4-chloro-N-(3-fluoro-5-(phenylethynyl)pyridin-2-yl)-1H-pyrazole-5-carboxamide] reads 240 nM; that for `CC(=O)N1CC[C@H](Cn2ncc(Cl)c2C(=O)Nc2ncc(C#Cc3ccccc3)cc2C)[C@H](F)C1` [Compound 82, 1-(((3S,4R)-1-acetyl-3-fluoropiperidin-4-yl)methyl)-4-chloro-N-(3-methyl-5-(phenylethynyl)pyridin-2-yl)-1H-pyrazole-5-carboxamide], 160 nM.

Staying with this test, now noted: read-out: Tl^+ Assay % inhibition at 30 uM (Minus value indicates activation of TREK-1); at 30 uM; CHO-K1 cells stably expressing human TREK-1; minus = activation.
As to `CC(=O)N1CCC(CCn2cc(Cl)c(C(=O)Nc3ncc(C#Cc4ccc(F)cc4)cc3C)n2)CC1` [Compound 442, 1-(2-(1-acetylpiperidin-4-yl)ethyl)-4-chloro-N-(5-((4-fluorophenyl)ethynyl)-3-methylpyridin-2-yl)-1H-pyrazole-3-carboxamide], the inhibition at 30 µM was -118%.

In general, IC50 refers to the concentration that gives 50% inhibition. What is called inhibition is the relative decrease from the control value, in per cent.
